In PubChem BioAssay (NCI):
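Interpolation was linear, between the two tested concentrations surrounding the appropriate level; five concentrations were tested over 48 hours in 96-well plates. GI50 marks 50% less growth. TGI: total growth inhibition.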

Key:
Assay in all cases: NCI-60 cell line screen, 48 h; in the data active = GI50 below about 0.43 µM; inactive = the rest
[1] = test system: 786-0 renal
[2] = test system: A498 renal
[3] = test system: A549 NSCLC
[4] = test system: ACHN renal
[5] = test system: BT-549 breast
[6] = test system: CAKI-1 renal
[7] = test system: CCRF-CEM leukemia
[8] = test system: COLO 205 colon
[9] = test system: DU-145 prostate
[10] = test system: EKVX NSCLC
[11] = test system: HCT-116 colon
[12] = test system: HCT-15 colon
[13] = test system: HL-60(TB) leukemia
[14] = test system: HOP-62 NSCLC
[15] = test system: HOP-92 NSCLC
[16] = test system: HS 578T breast
[17] = test system: HT29 colon
[18] = test system: IGROV1 ovarian
[19] = test system: KM12 colon
[20] = test system: LOX IMVI melanoma
[21] = test system: M14 melanoma
[22] = test system: MALME-3M melanoma
[23] = test system: MCF7 breast
[24] = test system: MDA-MB-231 breast
[25] = test system: MDA-MB-435
[26] = test system: MOLT-4 leukemia
[27] = test system: NCI-H226 lung
[28] = test system: NCI-H23 lung
[29] = test system: NCI-H460 lung
[30] = test system: NCI-H522 lung
[31] = test system: NCI/ADR-RES ovarian
[32] = test system: OVCAR-3 ovarian
[33] = test system: OVCAR-4 ovarian
[34] = test system: OVCAR-5 ovarian
[35] = test system: OVCAR-8 ovarian
[36] = test system: PC-3 prostate
[37] = test system: RPMI-8226 leukemia
[38] = test system: RXF 393 renal
[39] = test system: SF-268 CNS
[40] = test system: SF-295 CNS
[41] = test system: SF-539 CNS
[42] = test system: SK-MEL-2 melanoma
[43] = test system: SK-MEL-28 melanoma
[44] = test system: SK-MEL-5 melanoma
[45] = test system: SK-OV-3 ovarian
[46] = test system: SN12C renal
[47] = test system: SNB-19 CNS
[48] = test system: SNB-75 CNS
[49] = test system: SR leukemia
[50] = test system: SW-620 colon
[51] = test system: T-47D breast
[52] = test system: TK-10 renal
[53] = test system: U251 CNS
[54] = test system: UACC-257 melanoma
[55] = test system: UACC-62 melanoma
[56] = test system: UO-31 renal

CCN(CC)c1ccc(/C=C/C(=O)c2ccc(Nc3nc(Nc4ccccc4)nc(Nc4ccccc4)n3)cc2)cc1
> 100 µM: TGI [4] | TGI [7] | TGI [10] | TGI [11] | TGI [12] | TGI [13] | TGI [17] | TGI [18] | TGI [20] | TGI [21] | TGI [22] | TGI [24] | TGI [25] | TGI [27] | TGI [28] | TGI [30] | TGI [31] | TGI [33] | TGI [34] | TGI [35] | TGI [37] | TGI [41] | TGI [43] | TGI [45] | TGI [46] | TGI [47] | TGI [50] | TGI [53] | TGI [54] | TGI [55] | TGI [56]
28.1 µM: TGI [5] | TGI [14]
48 µM: TGI [2]
4.84 µM: TGI [15]
12 µM: TGI [26]
85.2 µM: TGI [42]
41 µM: TGI [51]
21.9 µM: TGI [8]
inactive: GI50 [1] 5.21 µM | GI50 [2] 7.44 µM | GI50 [3] 12.8 µM | GI50 [4] 6.1 µM | GI50 [5] 3.98 µM | GI50 [6] 5.17 µM | GI50 [7] 3.15 µM | GI50 [8] 1.17 µM | GI50 [9] 5.04 µM | GI50 [10] 4.07 µM | GI50 [11] 2.47 µM | GI50 [12] 2.54 µM | GI50 [13] 18 µM | GI50 [14] 2.55 µM | GI50 [16] 4.04 µM | GI50 [17] 20.3 µM | GI50 [18] 4.64 µM | GI50 [19] 1.42 µM | GI50 [20] 6.87 µM | GI50 [21] 3.02 µM | GI50 [22] 9.52 µM | GI50 [23] 1.99 µM | GI50 [24] 13.5 µM | GI50 [25] 9.26 µM | GI50 [26] 2.08 µM | GI50 [27] 26.9 µM | GI50 [28] 11.1 µM | GI50 [29] 2.55 µM | GI50 [30] 5.94 µM | GI50 [31] 4.3 µM | GI50 [32] 2.12 µM | GI50 [33] 32.3 µM | GI50 [34] 17.5 µM | GI50 [35] 9.95 µM | GI50 [36] 3.2 µM | GI50 [37] 3.26 µM | GI50 [38] 2.97 µM | GI50 [39] 8.51 µM | GI50 [40] 1.41 µM | GI50 [41] 9.08 µM | GI50 [42] 4.04 µM | GI50 [43] 19.8 µM | GI50 [44] 1.17 µM | GI50 [45] 10.6 µM | GI50 [46] > 100 µM | GI50 [47] 41.3 µM | GI50 [48] 3.9 µM | GI50 [49] 1.03 µM | GI50 [50] 31.2 µM | GI50 [51] 2.65 µM | GI50 [52] 2.39 µM | GI50 [53] 4.82 µM | GI50 [54] 20.4 µM | GI50 [55] 57.4 µM | GI50 [56] 2.69 µM
18.6 µM: TGI [36]
17.6 µM: TGI [29]
19.8 µM: TGI [52]
20 µM: TGI [32]
79.2 µM: TGI [9]
16.8 µM: TGI [38]
47.2 µM: TGI [39]
44.9 µM: TGI [44]
65.1 µM: TGI [19]
38 µM: TGI [6]
69.5 µM: TGI [16]
active: GI50 [15] 0.0316 µM
64.8 µM: TGI [48]
21.8 µM: TGI [23]
78.1 µM: TGI [3]
23.3 µM: TGI [40]
3.86 µM: TGI [49]
27.7 µM: TGI [1]
